Reference: patent US9611286B2, “Ruthenium carbon monoxide releasing molecules and uses thereof” (Alfama, Inc., priority 2011, dated 2017)
Entries after “also recorded” stand apart in the source; their conditions may differ.

What was measured:
[1] = Quantification of Ru in tissues (bio-distribution); conditions: liver, kidney, spleen, lung and brain
Experimental: Tricarbonyldichloro(methylthiogalactopyranoside) Ru(II) [Ru(CO)3Cl2(Gal-S-Me)], also referred to herein as Compound 1, was prepared by reacting CORM-2 with methylthiogalactopyranoside (Gal-S-Me) as described herein (see FIG. 2a and Materials and Methods section). The bio-distribution of Compound 1 in tissues was assessed by quantifying the levels of Ru and CO in the host by the method of Vreman et al., Anal Biochem (2005) 341:280-9. Liver, kidney, spleen, lung and brain tissues of non-infected mice (NI) were analyzed one hour after administration of Compound 1 and the control molecule, Compound 2 (FIG. 2b). […] The spleen is an organ that plays a crucial role in erythrophagocytosis, process important for red blood cell turnover, and recycling of iron. Erythrocytes are hydrolyzed by splenic macrophages, where the degradation of hemoglobin occurs, haem is release, and is catabolized by heme oxygenase-1 into biliverdin, carbon monoxide and ferrous iron (Fe^2+).
The tissue samples were weighed and dried at 80° C. overnight followed by 2 or more hours at 120° C. […] The Ru content was analyzed by an inductively coupled plasma-atomic emission spectrometer (ICP-AES) (model Ultima-Horiba Jobin Yvon, Longjumeau, France) using an external Ru standard method.

[2] = BBB disruption by Evans blue accumulation in brain parenchyma; format: in vivo, C57BL/6 mice; conditions: when control mice showed signs of ECM
[3] = Lung histology (hematoxylin and eosin) in M-AALI; format: in vivo; conditions: infected DBA/2 mice
Experimental: For evaluation of histological features, mice were deeply anesthetized until cessation of breathing when infected control mice presented signs of ECM or ALI. The livers, lungs, and brains were removed and fixed in 10% buffered formalin for 24-72 h. Four-micron sections were cut from paraffin-embedded tissues and stained with hematoxylin and eosin according to standard procedures. Histological analyses were performed on a Leica microscope DM 2500 (Leica Microsystems).

P. berghei ANKA [4] = test: In vitro replication of P. berghei ANKA; format: cell-based, Plasmodium berghei; conditions: 24 h
Experimental: (§1) The data led the inventors to wonder whether Compound 1 could have a direct anti-parasitic effect on P. berghei ANKA and P. falciparum parasites. To this end, the effect of Compound 1 and the anti-malarial chloroquine (CQ) was monitored on the in vitro replication of P. falciparum 3D7 isolate and P. berghei ANKA for 48 h and 24 h, respectively.

P. falciparum 3D7 = test: In vitro replication of P. falciparum 3D7; format: cell-based, Plasmodium falciparum; conditions: 48 h
Experimental: as §1

[5] = Quantification of COHb in peripheral blood; format: in vivo, C57BL/6 mice; conditions: infected mice, day 3 after infection
Experimental: Blood was collected from the tail of the mice to capillary tubes (VWR) with heparin (100 i.u./ml in PBS 1×; LEO Pharma Inc.), transferred into AVOXimeter 4000 cuvettes (ITC) where the levels of carboxyhemoglobin (COHb), oxyhemoglobin (02Hb) and methemoglobin (MetHb) were measured in a portable AVOXimeter 4000 CO-oximeter (ITC). Results are shown as mean percentage of total hemoglobin species in circulation.

P. berghei ANKA [6] = test: Malaria-associated acute lung injury (M-AALI) model; format: in vivo, DBA/2 mice; conditions: i.v. twice daily between days 2 and 4 after infection
Text: The M-AALI model, based on the infection of DBA-2 mice with P. berghei ANKA, is characterized by dyspnea, airway obstruction, hypoxemia, pulmonary exudate and elevated VEGF levels in plasma, followed by death between days 7 and 12 after infection.
Red blood cells infected with green fluorescent protein (GFP)-transgenic P. berghei ANKA and P. berghei ANKA was used to infect mice (see, e.g., Franke-Fayard et al. Mol Biochem Parasitol (2004) 137:23-33). Cryopreserved parasites were passed once through C57BL/6 or DBA-2 mice before being used to infect experimental animals. […] The infected mice were monitored daily for clinical symptoms of experimental cerebral malaria (ECM) including hemi- or paraplegia, head deviation, tendency to roll over on stimulation, ataxia and convulsions, or ALI, including dyspnea. […] Parasitemia was assessed by flow cytometry for mice infected with GFP-expressing P. berghei ANKA, using tail blood, as previously described (see, e.g., Pamplona et al., Nat Med (2007) 13:703-710). Mean parasitemia is expressed as percentage of infected red blood cells. For mice infected with non-GFP P. berghei parasitemia was assessed daily by microscopic counting of Giemsa-stained thin blood smears. Mean parasitemia is expressed as percentage of infected red blood cells. Survival is expressed as percentage. […]

[7] = Determination of CO in tissues; format: in vivo; conditions: one hour after i.v. administration, non-infected mice
Experimental: It is hypothesized that Compound 1 promotes/increases erythrophagocytosis.
CO was quantified in different tissues as previously described (see, e.g., Vreman et al., Anal Biochem (2005) 341:280-289). Briefly, CO was liberated as gas in a closed vial by adding 25 μL of water and 5 μL of sulfosalicylic acid (SSA, 30% [wt/vol]) to 30 μL of diluted sample after being homogenized. The vials were incubated on ice for at least 10 min before being analyzed. The gas in the headspace of the vials was analyzed quantitatively with a gas chromatograph (GC) equipped with a reducing-compound photometry detector (RCP detector) (Peak Laboratories, Mountain View, Calif.), which allows to quantify CO in gas at concentrations as low as 1-2 parts per billion (ppb). The amount of CO was calculated using a calibration curve prepared from CO standards. Briefly, blood was collected from the tail of the mice to capillary tubes (VWR) with heparin (100 i.u./ml in PBS 1×; LEO Pharma Inc.), transferred into AVOXimeter 4000 cuvettes (ITC) where the levels of carboxyhemoglobin (COHb), oxyhemoglobin (O2Hb) and methemoglobin (MetHb) were measured in a portable AVOXimeter 4000 CO-oximeter (ITC). Results are shown as mean percentage of total hemoglobin species in circulation.

C[SH]([C@@H]1OC(CO)[C@H](O)[C@H](O)C1O)[Ru]([Cl])([Cl])([CH]=O)([CH]=O)[CH]=O (some centres unmarked) [Compound 1, Tricarbonyldichloro(methylthiogalactopyranoside) Ru(II)]
Ru distribution in organs [1]: marked affinity for the liver; also recorded: No signs of ruthenium are found in the brain
BBB disruption [2]: did not show any evidence of BBB disruption
vascular congestion with pRBCs in lung tissue [3]: major differences in the vascular congestion with pRBCs
inhibition of in vitro growth (P. berghei ANKA [4]): does not inhibit in vitro growth
inhibition of in vitro growth (P. falciparum 3D7): does not inhibit in vitro growth
COHb levels in the blood [5]: without causing measurable increase in COHb levels
mice that developed M-AALI (P. berghei ANKA [6]): None
levels of CO in organs [7]: higher levels of CO in the liver and spleen
